Measured values: patent publication US20120156648A1, “APPARATUS AND METHOD FOR DELIVERING A THERAPEUTIC AGENT TO DENTAL TISSUE” (BUCKEYE DENTAL, LLC, priority 2010, published 2012)

Assay: In vitro model of drug delivery: HP gel into extracted human teeth by MACROESIS vs diffusion, HP eluted into water measured by colorimetric kit / UV-Vis at 550 nm
Type: in vitro ADME
Conditions: for HP concentration in receiving medium (distilled water): below threshold of reliable detection, excluded from analysis
Procedure: MACROESIS™ drug delivery system uses an AC electrical field to push active pharmaceutical agents through biological membranes, such as peroxide gels into the layers of tooth enamel. Current methods of chair-side whitening involve applying a gel which is either self-activating, or activated by heat or UV. Another alternative involves custom trays containing the whitening agent obtained from a dentist used over a 7-10 day period at home (30 min to 2 hours per application). An in vitro model of drug delivery was used in a validity study investigating the delivery of a 35% Carbamide Peroxide gel into extracted human teeth by MACROESIS™.
Fourteen (14) freshly extracted human teeth without detectable caries or restoration were stored in distilled water at 4° C. and used within 1 month of extraction. Teeth were randomly assigned to the diffusion experimental group (6 teeth) or enhanced electrochemical delivery (MACROESIS™) experimental group (6 teeth). Two teeth were randomly assigned to a control group. The experiment was run in two rounds of six teeth each (3 from each treatment group) approximately two weeks apart to show repeatability of results.
The diffusion group received: 66±1 mg 6% HP gel applied evenly to the tooth surface for 20 minutes. The MACROESIS™ group received: 66±1 mg 6% HP gel applied evenly to the tooth surface for 20 minutes using the electrochemical drug delivery device and electrode (FIG. 5A-C). The control group contained one control tooth subjected to the diffusion treatment and one control tooth subjected to the MACROESIS™ treatment.
Following treatment, the teeth were rinsed twice in distilled water and dried. The outer surface of the teeth was covered with two layers of clear nail varnish to fill any defects. […]
The amount of H2O2 that diffused from the dentin was measured by a colorimetric oxidation-reduction reaction kit (HYDROGEN PEROXIDE CHEMets®, VACUettes® and Vacu-vials®, CHEMetrics, Inc., Calverton, Va.). HP concentration was measured by UV-Vis spectroscopy at 550 nm.

HP concentration in receiving medium (distilled water) (1-hour samples): < 0.1 PPM | HP concentration in receiving medium (distilled water) (48-hour samples): < 0.1 PPM | time in which the majority of the HP eluted from the teeth into the water (receiving medium removed at 1 hour, 24 hours and 48 hours): between 1 hour and 24 hours
SMILES: OO [HP, H2O2]
